Consider 26 substances from publication PMC11714206, “Massively Parallel Screening of Toll/Interleukin‐1 Receptor (TIR)‐Derived Peptides Reveals Multiple Toll‐Like Receptors (TLRs)‐Targeting Immunomodulatory Peptides” (Advanced Science, 2024).

Values joined by “and” are separate entries in the source; they are usually repeats but may differ in a detail not shown here. Equal entries are not always repeated.

The target in one experiment is T1, MAL^TIR (Homo sapiens, UniProt P58753).
T1 construct: MAL (residues 79–221); 6xHis; made in house; host or cells: E. coli BL21 (DE3)
Description: T‐Surf phage library (P8 and P3) selection against MAL^TIR, four rounds, NGS read counts. Type of experiment: binding. Conditions: for Population: 4th round of selection against MAL TIR, share of NGS reads; for P3_MAL Rank (after) / P3_MAL Rank (before): P3 library. The method, boiled down: (§1)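 Library of 190 946 TIR‐derived peptides on P8 or P3 was panned on immobilized TIR domain coated at 5 µg mL^−1, BSA‐blocked, 1 h binding at RT, PBS/0.5% Tween‐20 washes, HCl elution, TG1 amplification. Fourth‐round pools were PCR‐barcoded, sequenced (100 bp paired‐end, Phred ≥30), and peptides ranked by read counts.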

Another experiment has as its target T2, MyD88^TIR (Homo sapiens, UniProt Q99836).
T2 construct: MyD88 (residues 148–296); 6xHis; made in house; host or cells: E. coli BL21 (DE3)
Description: T‐Surf phage library (P8 and P3) selection against MyD88^TIR, four rounds, NGS read counts. Type of experiment: binding. Conditions: for Population: P3_MyD88 pool: P3 T-Surf phage library, 4th round of selection against MyD88 TIR, share of NGS reads; for Rank (after): P3_MyD88: rank by count after grouping; for Rank (before): P3_MyD88: rank by count before grouping; for P3_MyD88 Rank (after) / P3_MyD88 Rank (before): P3 library. The essentials: as §1

Setting [1] is: P3_MAL pool: P3 T-Surf phage library.
[2] abbreviates: P3_MAL: rank by count after grouping.
Where [3] appears, read: P3_MAL: rank by count before grouping.
Setting [4] is: selection against MAL TIR, rank by count after grouping.
[5] abbreviates: selection against MAL TIR, rank by count before grouping.
Setting [6] is: 4R selection against MAL, rank after grouping.
The mark [7] stands for this setting: 4R selection against MAL, rank before grouping.
[8] abbreviates: P8_MAL pool: P8 T-Surf phage library.
[9] abbreviates: selection against MAL, rank after grouping.
The mark [10] stands for this setting: selection against MAL, rank before grouping.
Where [11] appears, read: P8_MAL: rank by count after grouping.
The mark [12] stands for this setting: P8_MAL: rank by count before grouping.

T2 sequence (Q99836 148-296): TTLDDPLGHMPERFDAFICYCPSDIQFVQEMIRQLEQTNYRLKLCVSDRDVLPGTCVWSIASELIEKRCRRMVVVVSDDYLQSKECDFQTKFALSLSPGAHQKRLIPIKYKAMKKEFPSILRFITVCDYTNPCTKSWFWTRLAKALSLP
T1 sequence (P58753 79-221): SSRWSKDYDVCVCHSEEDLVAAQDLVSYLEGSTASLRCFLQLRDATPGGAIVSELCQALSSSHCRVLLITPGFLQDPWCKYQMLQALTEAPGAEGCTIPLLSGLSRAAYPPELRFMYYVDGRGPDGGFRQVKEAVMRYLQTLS

On to YAFTGHLHRYLVQHGV, for which the Population is 0.0109% at MAL^TIR (setting [1]) and 0.00378% on MyD88^TIR.
In the case of NGHESEIIKEIWIPL, the results for the “Rank (after)” value on MAL^TIR (setting [2]) and on MyD88^TIR were 429 and 407, respectively. The “Rank (before)” value is 3263 at MAL^TIR (setting [3]) and 3358 at MyD88^TIR.
Take NQWRNALYEAANLS: on MAL^TIR (setting [4]), the “P3_MAL Rank (after)” value is 198. The “P3_MAL Rank (before)” value on MAL^TIR (setting [5]) worked out at 1055. On MyD88^TIR, the “Rank (after)” value is given as 184 and the “Rank (before)” value was 1269.
Consider SIFREGLWRLLELSKK, for which the Population turned out to be 0.0259% on MAL^TIR (setting [1]) and 0.00291% at MyD88^TIR.
For the substance LKWGDPYFGANCVMR, the “Rank (after)” value on MAL^TIR (setting [2]) is given as 143. Besides, the “Rank (before)” value at MAL^TIR (setting [3]) amounted to 415. Besides, the “P3_MyD88 Rank (after)” value at MyD88^TIR (selection against MyD88 TIR, rank by count after grouping) worked out at 269. Moreover, the “P3_MyD88 Rank (before)” value on MyD88^TIR (selection against MyD88 TIR, rank by count before grouping) worked out at 1069.
Turning to YAFTGHLQRYLVHRGV, at MAL^TIR (setting [4]), the “P3_MAL Rank (after)” value amounted to 251. In addition, the “P3_MAL Rank (before)” value on MAL^TIR (setting [5]) is given as 1443. Besides, at MyD88^TIR, the “Rank (after)” value is 120 and the “Rank (before)” value is listed as 1532.
Regarding AFLYTFLINLTHPTNF, the “P3_MAL Rank (after)” value on MAL^TIR (setting [6]) stood at 588. On MAL^TIR (setting [7]), the “P3_MAL Rank (before)” value stood at 1798. The Population on MAL^TIR (setting [8]) was 0.00463% and 0.00432% and 0.00402% and 0.00371% and 0.0034% and 0.00309% and 0.00278%. In addition, the “P3_MyD88 Rank (after)” value on MyD88^TIR (selection against MyD88, rank after grouping) is 537. For the same substance, the “P3_MyD88 Rank (before)” value on MyD88^TIR (selection against MyD88, rank before grouping) is 1881.
With SSFREGLWHLLELSKK, the Population at MAL^TIR (setting [1]) is 0.00413%; at MyD88^TIR, 0.00553%.
For YAFTGHLHCYLVQRGI, at MAL^TIR (setting [4]), the “P3_MAL Rank (after)” value came out at 194. For the same substance, on MAL^TIR (setting [5]), the “P3_MAL Rank (before)” value is 1375.
RGFLNHLHHHLQPNDH: the “P3_MAL Rank (after)” value on MAL^TIR (selection against MAL, rank by count after grouping) came out at 703. Also, the “P3_MAL Rank (before)” value on MAL^TIR (selection against MAL, rank by count before grouping) is reported as 2351.
With RGFLSHRRYHLQAKDH, the “P3_MAL Rank (after)” value on MAL^TIR (setting [9]) is listed as 539. Also, the “P3_MAL Rank (before)” value at MAL^TIR (setting [10]) was found to be 2396.
Consider TFHSHLYNALVQAGIH, for which the “P8_MAL Rank (after)” value at MAL^TIR (P8 library, selection against MAL, rank by count after grouping) worked out at 678. Further, the “P8_MAL Rank (before)” value at MAL^TIR (P8 library, selection against MAL, rank by count before grouping) was 2634.
Turning to YAFTGHLHRYLV*RGV, at MAL^TIR (setting [1]), the Population stood at 0.00564%.
Consider RGFLSHLRHPVHPKDH, for which the “P3_MAL Rank (after)” value at MAL^TIR (setting [6]) is listed as 615. For the same substance, at MAL^TIR (setting [7]), the “P3_MAL Rank (before)” value came out at 2367.
On to LKEESWRRALERAGKL, for which, on MAL^TIR (setting [2]), the “Rank (after)” value is 410. Moreover, on MAL^TIR (setting [3]), the “Rank (before)” value amounted to 2307.
In the case of KERLHQWKLALTQAPI, the “P3_MAL Rank (after)” value on MAL^TIR (setting [6]) stood at 661. Also, the “P3_MAL Rank (before)” value on MAL^TIR (setting [7]) is 3604.
Consider SSFREGLWRRLELSKK, for which the Population at MAL^TIR (setting [1]) is given as 0.00488%.
In the case of AFQYTFLFNLTHPTNF, the “Rank (after)” value at MAL^TIR (setting [11]) is 125. For the same substance, the “Rank (before)” value at MAL^TIR (setting [12]) was 1920.
Regarding SSFREGIWRLLELRKK, the “Rank (after)” value at MAL^TIR (setting [2]) is recorded as 394. Further, the “Rank (before)” value at MAL^TIR (setting [3]) is listed as 3183.
KWFWDKLIYALSRIR: the “P3_MAL Rank (after)” value at MAL^TIR (setting [9]) is 545. Further, on MAL^TIR (setting [10]), the “P3_MAL Rank (before)” value worked out at 3495.
For RNFMSHLYQGLKNRGIFTF the same measures were 502 and 2612.
As to RNFVAYLFQALAHKSI, at MAL^TIR (setting [11]), the “Rank (after)” value is recorded as 183. At MAL^TIR (setting [12]), the “Rank (before)” value was 2199.
As to ERLFSEPLNVNKDLLG, the “Rank (after)” value on MAL^TIR (setting [2]) is 434. Besides, the “Rank (before)” value on MAL^TIR (setting [3]) turned out to be 2032.
For SSFRKGLCRLLELSKK the same measures were 463 and 3196.
Turning to YFLHFLLFSRPETVYI, the Population at MAL^TIR (setting [8]) was determined as 0.00309%.
With ARLPAICIVIWCSVAX, the Population on MAL^TIR (setting [1]) is listed as 0.00376%.
